Paper PMC7617969, “Carboxylic Acid Bioisosteres Boost Nurr1 Agonist Selectivity” (Journal of medicinal chemistry, 2025)
“And” between values parts separate entries of the source, which are not always exact repeats. Equal values may be shown once.

Key:
[1] = target: T1, rDHODH (Rattus norvegicus, UniProt Q63707); test: rat DHODH inhibition assay; assay type: biochemical, rats
T1 construct: using an N-terminally truncated recombinant DHODH enzyme as described previously[20]
Experimental: Inhibition of DHODH was measured in vitro using an N-terminally truncated recombinant DHODH enzyme as described previously. The final assay mixture contained 60 μM 2,6-dichloroindophenol, 50 μM decylubiquinone, 100 μM dihydroorotate, and the DHODH protein whose concentration was adjusted in a way that an average slope of approx. 0.2 AU/min served as the positive control (no inhibitor). Measurements were performed in 50 mM TrisHCl, 150 mM KCl, and 0.1% Triton X-100 at pH 8.0 and at 30°C with at least six different concentrations of a test compound. The reaction was started by adding dihydroorotate and measuring the absorption at 600 nm for 2 min. Each test compound concentration used for IC50 calculation was tested in at least three independent experiments.

[2] = target: T2, Nurr1 (Homo sapiens, UniProt P43354); test: Gal4-Nurr1 hybrid reporter gene assay; assay type: cell-based
T2 construct: expressed in transfected cells; host or cells: HEK293T

[3] = target: T3, recombinant Nurr1 LBD (Homo sapiens, UniProt P43354); test: Isothermal titration calorimetry (ITC); assay type: binding; conditions: 25 °C
T3 construct: Nurr1 LBD protein (15 μM, expressed as described previously[18]); made in house
Experimental: ITC experiments were conducted on an Affinity ITC instrument (TA Instruments, New Castle, DE, USA) at 25 °C with a stirring rate of 75 rpm. Nurr1 LBD protein (15 μM, expressed as described previously[18]) in buffer (20 mM Tris, pH 7.5, 100 mM NaCl, 5% glycerol) containing 5% DMSO was titrated with 32 (100 μM in the same buffer containing […]) in 21 injections (1 × 1 µL and 20 × 4 μL) with an injection interval of 120 s. As control experiments, the test compound was titrated to the buffer, and the buffer was titrated to the Nurr1 LBD protein under otherwise identical conditions. The heats of the compound−protein titration were analyzed using NanoAnalyze software (version 3.11.0, TA Instruments) with independent binding model.

[4] = test system: RXR; test: Gal4 hybrid reporter gene assay, selectivity panel; assay type: cell-based, human; conditions: 1 µM; relative activation compared to reference agonists
Experimental: (§1) NR modulation was determined in Gal4 hybrid reporter gene assays in HEK293T cells (German Collection of Microorganisms and Cell Culture GmbH, DSMZ) using pFR-Luc (Stratagene, La Jolla, CA, USA; reporter), pRL-SV40 (Promega, Madison, WI, USA; internal control) and pFA-CMV-hNR-LBD[47],[48] plasmids coding for the hinge region and ligand binding domain of the canonical isoform of the respective NR. Cells were cultured in Dulbecco’s modified Eagle’s medium (DMEM), high glucose supplemented with 10% fetal calf serum (FCS), sodium pyruvate (1 mM), penicillin (100 U/mL), and streptomycin (100 μg/mL) at 37°C and 5% CO2 and seeded in 96-well plates (3×10^4 cells/well). After 24 h, medium was changed to Opti-MEM without supplements and cells were transiently transfected using Lipofectamine LTX reagent (Invitrogen, Carlsbad, CA, USA) according to the manufacturer’s protocol. Five hours after transfection, cells were incubated with the test compounds in Opti-MEM supplemented with penicillin (100 U/mL), streptomycin (100 μg/mL) and 0.1% DMSO for 16 h before luciferase activity was measured using the Dual-Glo Luciferase Assay System (Promega) according to the manufacturer’s protocol on a Tecan Spark luminometer (Tecan Deutschland GmbH, Crailsheim, Germany). Firefly luminescence was divided by Renilla luminescence and multiplied by 1000 resulting in relative light units (RLU) to normalize for transfection efficiency and cell growth. Fold activation was obtained by dividing the mean RLU of test compound by the mean RLU of the untreated control. All samples were tested in at least three biologically independent experiments in duplicates. For dose-response curve fitting and calculation of EC50 values, the equation “[Agonist] vs. response -- Variable slope (four parameters)” was used in GraphPad Prism (version 7.00, GraphPad Software, La Jolla, CA, USA).

[5] = test system: PPAR; test: Gal4 hybrid reporter gene assay, selectivity panel; assay type: cell-based, human; conditions: 1 µM; relative activation compared to reference agonists
Experimental: as §1

[6] = test system: THR; test: Gal4 hybrid reporter gene assay, selectivity panel; assay type: cell-based, human; conditions: 1 µM; relative activation compared to reference agonists
Experimental: as §1

[7] = test system: RAR; test: Gal4 hybrid reporter gene assay, selectivity panel; assay type: cell-based, human; conditions: 1 µM; relative activation compared to reference agonists
Experimental: as §1

[8] = target: T4, NOR1 (Homo sapiens, UniProt Q92570); test: Gal4-NOR1 hybrid reporter gene assay; assay type: cell-based
T4 construct: expressed in transfected cells; host or cells: HEK293T
T4 sequence (Q92570 394-623 limits assumed): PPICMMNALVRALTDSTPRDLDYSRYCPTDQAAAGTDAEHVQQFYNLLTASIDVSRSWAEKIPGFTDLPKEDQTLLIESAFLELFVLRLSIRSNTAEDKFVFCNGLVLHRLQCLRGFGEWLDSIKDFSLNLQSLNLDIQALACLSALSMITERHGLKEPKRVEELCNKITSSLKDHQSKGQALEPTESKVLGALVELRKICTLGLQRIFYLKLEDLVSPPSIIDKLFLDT
Experimental: NR modulation was determined in Gal4 hybrid reporter gene assays in HEK293T cells (German Collection of Microorganisms and Cell Culture GmbH, DSMZ) using pFR-Luc (Stratagene, La Jolla, CA, USA; reporter), pRL-SV40 (Promega, Madison, WI, USA; internal control) and pFA-CMV-hNR-LBD[47],[48] plasmids coding for the hinge region and ligand binding domain of the canonical isoform of the respective NR. Cells were cultured in Dulbecco’s modified Eagle’s medium (DMEM), high glucose supplemented with 10% fetal calf serum (FCS), sodium pyruvate (1 mM), penicillin (100 U/mL), and streptomycin (100 μg/mL) at 37°C and 5% CO2 and seeded in 96-well plates (3×10^4 cells/well). […] Five hours after transfection, cells were incubated with the test compounds in Opti-MEM supplemented with penicillin (100 U/mL), streptomycin (100 μg/mL) and 0.1% DMSO for 16 h before luciferase activity was measured using the Dual-Glo Luciferase Assay System (Promega) according to the manufacturer’s protocol on a Tecan Spark luminometer (Tecan Deutschland GmbH, Crailsheim, Germany). Firefly luminescence was divided by Renilla luminescence and multiplied by 1000 resulting in relative light units (RLU) to normalize for transfection efficiency and cell growth. […]

T2 sequence (P43354 360-595 limits assumed): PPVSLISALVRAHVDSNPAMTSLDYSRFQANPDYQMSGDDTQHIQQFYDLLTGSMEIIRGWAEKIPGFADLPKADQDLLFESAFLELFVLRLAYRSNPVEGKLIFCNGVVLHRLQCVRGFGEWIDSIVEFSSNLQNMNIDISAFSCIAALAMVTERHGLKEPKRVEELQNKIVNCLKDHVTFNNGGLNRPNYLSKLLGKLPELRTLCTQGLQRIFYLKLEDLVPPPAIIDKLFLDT
T1 sequence (Q63707 31-395): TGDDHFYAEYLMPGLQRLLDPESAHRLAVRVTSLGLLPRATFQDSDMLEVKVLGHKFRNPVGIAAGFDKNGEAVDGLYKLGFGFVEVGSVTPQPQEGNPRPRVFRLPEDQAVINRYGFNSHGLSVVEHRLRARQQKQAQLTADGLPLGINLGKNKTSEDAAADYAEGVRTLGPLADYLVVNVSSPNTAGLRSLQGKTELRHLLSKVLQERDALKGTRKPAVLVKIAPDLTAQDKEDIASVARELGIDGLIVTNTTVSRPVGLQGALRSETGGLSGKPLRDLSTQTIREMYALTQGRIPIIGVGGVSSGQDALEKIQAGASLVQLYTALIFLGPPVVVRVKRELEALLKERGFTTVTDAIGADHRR
T3 sequence (P43354 360-595 limits assumed): as the sequence (P43354 360-595 limits assumed) above

With COc1cccc(-c2ccc(NC(=O)C3=C(c4nn[nH]n4)CCC3)c(F)c2)c1 [compound 32, N-{3-Fluoro-3’-methoxy-[1,1'-biphenyl]-4-yl}-2-(2H-tetrazol-5-yl)cyclopent-1-ene-1-carboxamide] the inhibition at 100 µM [1] was 64 ± 2%, the “Nurr1 preference/selectivity over DHODH” value [2] was over 100 fold and the EC50 ([2]; Gal4-Nurr1 hybrid reporter gene assay, HEK293T cells, mean ± S.E.M., n ≥ 3) was 90 ± 10 nM. For the same molecule, the “max. activation (Nurr1)” value ([2]; Gal4-Nurr1 hybrid reporter gene assay, fold activation vs untreated control) was 2.5 fold and 2.5±0.1 fold, the “selectivity index DHODH/Nurr1” value ([2]; IC50(DHODH) / EC50(Nurr1)) was 110 and the efficacy_NR4A2 ([2]; supplementary csv, max. activation in %) was 250%. For the same molecule, the Kd [3] was 200 nM, the “activity on RXR” value [4] was “no activity” and the “activity on PPAR” value [5] was “no activity”. The “activity on THR” value [6] was “no activity”, the “activity on RAR” value [7] was “no activity” and the EC50 [8] was 120 ± 10 nM. For the same molecule, the “fold activation (NOR1)” value [8] was 1.8 fold.
